Laboratory results: article PMC6844378, “Structure activity relationship studies on Amb639752: toward the identification of a common pharmacophoric structure for DGKα inhibitors” (Journal of Enzyme Inhibition and Medicinal Chemistry, 2019)

Tests used:
DGKα = DGKα (Homo sapiens, UniProt P23743); experiment: DGK assay on OST-DGKα enriched MDCK homogenates; type: biochemical; set-up: expressed in transfected cells; host or cells: MDCK cells (vector-infected, doxycycline-induced), crude homogenate; settings: for remaining activity at 100 µM: percentage of residual DGKα activity compared to DMSO control, OST-DGKα overexpressing cell lysates, saturating DAG and ATP, read-out: Residue activity at 100 µM; for IC50: residual OST-DGKα activity at 0.1, 1.0, 10.0 and 100.0 µM
Description: Madin-Darby canine kidney (MDCK) cells stably expressing One Strep Tag DGKα (OST-DGKα) were prepared by infecting MDCK cells with a vector expressing an inducible OST tagged DGKα constructs. MDCK cells infected with empty vector were used as controls. MDCK cells were cultured in MEM (minimal essential medium) with 5% FBS (foetal bovine serum) and 1% antibiotic–antimycotic solution. Routinely, cells were splitted every 3–4 days with trypsin–EDTA 0.25% in standard 100 mm dishes.
Large cultures of MDCK cells for enzyme preparation were done by plating 5 × 10^6 cells in 245 mm^2 dishes. Once they reached nearly 70% confluence, cells were treated with doxycycline (1 µg/mL, two days). […] Cells were collected with a rubber scraper, homogenised by passing them through a 29 G-needle syringe 20 times and stored in aliquots at –80 °C. Presence of OST-DGKα was confirmed by western blotting and enzyme assay, transduced DGKα has an activity >100 folds the endogenous DGK.
Essentionally, the same procedure was followed as reported previously in Velnati et al.[9] In brief, DGK activity was assayed by measuring initial velocities (5 min at 27 °C) in presence of saturating substrate concentrations. Reaction conditions: 0.9 µg/µL 1,2-dioleoyl-sn-glycerol, 5 mM ATP, 0.01 µCi/µL [γ^32P]-ATP, 1 mM sodium orthovanadate, 10 mM MgCl2, 1.2 mM EGTA in 7.5 mM Hepes pH 8[12]. Reaction mixture is assembled mixing enzyme (24.5 µL of homogenate), 100× inhibitor or DMSO (0.5 µL), 5× ATP solution (10 µL of 25 mM ATP, 0.05 µCi/µL [γ^32P]-ATP (Perkin-Elmer, Milan, Italy), 5 mM sodium orthovanadate, 50 mM MgCl2), and 3.3× DAG solution (15 µL of 3 µg/µL 1,2-dioleoyl-sn-glycerol resuspended by sonication in 4 mM EGTA in 25 mM Hepes pH 8). The reaction was stopped after 5 min by adding 200 µL of freshly prepared 1 M HCl and lipid was extracted by adding 200 µL of CH3OH:CHCl3 1:1 solution and vortexing for 1 min. The two phases were separated by centrifugation (12,000 RCF for 2 min). Twenty-five microlitres of the lower organic phase was spotted in small drops on silica TLC plates. TLC was run 10 cm and dried before radioactive signals were detected by GS-250 molecular imager and was quantified by quantity one (Bio-Rad, Hercules, CA) software assuring the absence of saturated spots.
Percentage residual activity was calculated as follows: (OST-DGKα homogenate with inhibitor – vector homogenate)/(OST-DGKα homogenate with DMSO – vector homogenate)×100.
Data for the screen on OST-DGKα homogenates are the mean of duplicates. The compounds showing inhibitory activity in this assay were tested >4 times and the mean ± SEM is reported.
To calculate IC50 values of active inhibitors, the inhibitor activity was measured at least three times at 0.1, 1.0, 10.0, and 100.0 µM concentration. Data were analysed using [inhibitor] vs. normalised response parameters with least square [ordinary] curve fitting method in GraphPad PRISM 8.0 software (GraphPad Software, La Jolla, CA) mentioning 95% confidence interval and IC50 values always greater than 0.0. […] In all the experiments, the data were normalised with the controls.
Each inhibitor was tested in duplicate at least once, and DGKα activity was expressed as percentage of residual DGKα activity compared to DMSO control in the same assay. Assay uses OST-DGKα overexpressing cell lysates in presence of saturating exogenous DAG and ATP. We considered R59022 (commercially available) and the lead compound Amb63975230 as our reference molecules.
To measure the inhibitor potency, we determined the IC50 values for the compounds that resulted active when tested at 100 µM by measuring the residual OST-DGKα activity over a dose range of inhibitor concentrations (0.1 µM, 1.0 µM, 10.0 µM, and 100.0 µM).

SAP-deficient T cells = experiment: RICD assay in SAP silenced T cells; type: cell-based, human; settings: 10 µM, 30 min pre-treatment, OKT3 10 ng/mL, 24 h; for rescue of RICD (apoptosis) in SAP-deficient T cells: SAP siRNA
Description: PBL were isolated from healthy anonymous human donors by Ficoll-Paque PLUS (GE Healthcare, Chicago, IL) density gradient centrifugation, washed, and resuspended at 2 × 10^6 cell/mL in RPMI-GlutaMAX containing 10% heat inactivated FCS, 2 mM glutamine, and 100 U/mL of penicillin and streptomycin. T cells were activated with 1 µg/mL anti-CD3 (UCHT1) and anti-CD28 (clone CD28.2) antibodies. After three days, activated T cells were washed and cultured in medium additionated of 100 IU/mL rhIL-2 (Peprotech, Rocky Hill, NJ) at 1.2 × 10^6 cells/mL for ≥7 days by changing media for every 2–3 days.
Activated human PBLs were transfected with 200 pmol of siRNA oligonucleotides specific for the target protein (Stealth Select siRNA; Life Technologies, Carlsbad, CA) or a non-specific control oligo (Life Technologies, Carlsbad, CA). Transient transfections were performed using Amaxa nucleofector kits for human T cells (Lonza, Basel, Switzerland) and the Amaxa Nucleofector II or 4D systems (programmes T-20 or EI-115). Cells were cultured in IL-2 (100 IU/mL) for four days to allow target gene knockdown. Knockdown efficiency was periodically evaluated by Western blotting.
To test restimulation induced cell death, activated T cells (10^5 cells/well) were plated in triplicate in 96-well round-bottom plate and treated with anti-CD3 (clone OKT3) (10 ng/mL) in RPMI-GlutaMAX supplemented with 100 IU/mL rhIL-2 for 24 h. In these assays, inhibitors (10 µM) were added 30 min before the restimulation with OKT3. 24 h after treatment, cells were stained with 20 ng/mL propidium iodide and collected for a constant time of 30 s per sample on Attune Nxt Flow Cytometer (Thermo Fisher Scientific, Waltham, MA). Cell death is expressed as % cell loss and calculated as: % cell loss=(1−(number of viable cells in sample/number of viable cells in control)×100)
Results were expressed as mean ± standard error of the mean (SEM). We always compared controls and SAP silenced lymphocytes from the same donors as there is a large individual variability in RICD sensitivity.
To evaluate inhibitor efficacy in physiological context, we modelled XLP-1 by silencing SAP in primary peripheral blood T lymphocytes (PBLs) and restimulating them with anti-CD3 antibody (OKT3 10 ng/mL, 24 h). We pre-treated the cells with the indicated inhibitors for 30 min at a concentration of 10 µM[8].
Figure 9. DGKα inhibitors partially restores apoptosis in SAP deficient lymphocytes. […] After 4 days, the cells were restimulated with CD3 agonist OKT3 (10 ng/mL) in presence of respective inhibitor. Vehicle (DMSO) was used as control. Twenty-four hours later, the % of cell loss was evaluated by PI staining. Data are the mean ± SEM of nine independent experiments performed in triplicate.

Sequence of DGKα (P23743 whole entry): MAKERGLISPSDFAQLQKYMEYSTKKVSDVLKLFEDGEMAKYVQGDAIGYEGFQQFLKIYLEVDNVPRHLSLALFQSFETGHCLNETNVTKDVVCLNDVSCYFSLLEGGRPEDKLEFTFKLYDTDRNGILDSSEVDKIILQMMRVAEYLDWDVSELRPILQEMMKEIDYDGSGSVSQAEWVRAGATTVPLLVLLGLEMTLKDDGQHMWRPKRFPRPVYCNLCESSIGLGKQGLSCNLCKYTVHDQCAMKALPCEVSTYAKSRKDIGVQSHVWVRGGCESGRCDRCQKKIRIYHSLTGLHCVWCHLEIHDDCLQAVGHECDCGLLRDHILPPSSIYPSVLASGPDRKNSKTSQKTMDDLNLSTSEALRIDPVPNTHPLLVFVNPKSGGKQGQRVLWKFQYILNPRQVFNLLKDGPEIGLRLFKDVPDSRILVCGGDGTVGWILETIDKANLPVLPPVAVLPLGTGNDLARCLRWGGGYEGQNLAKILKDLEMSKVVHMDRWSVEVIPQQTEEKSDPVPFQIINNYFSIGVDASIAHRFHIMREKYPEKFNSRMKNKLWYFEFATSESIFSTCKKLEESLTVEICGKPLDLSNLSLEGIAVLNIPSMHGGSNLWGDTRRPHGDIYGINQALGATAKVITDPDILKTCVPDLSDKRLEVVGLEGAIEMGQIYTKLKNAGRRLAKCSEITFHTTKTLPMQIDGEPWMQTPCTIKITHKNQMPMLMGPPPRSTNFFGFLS

Compound | remaining activity at 100 µM (DGKα; 100 µM) [%] | IC50 (DGKα) [nM] | effect on RICD in control siRNA-transfected cells (SAP-deficient T cells) | rescue of RICD (apoptosis) in SAP-deficient T cells (SAP-deficient T cells) | inhibition at 100 µM (DGKα; 100 µM) [%]
Cc1ccc2c(C(=O)CN3CCN(C(=O)c4ccc(Cl)cc4)CC3)c(C)[nH]c2c1 [Compound 11, 2-(4-(4-Chlorobenzoyl)piperazin-1-yl)-1-(2,6-dimethyl-1H-indol-3-yl)ethan-1-one] | 6 | 1600 | slightly reducing | restore apoptosis | –
Cc1ccc2c(C(=O)CN3CCN(C(=O)c4ccco4)CC3)c(C)[nH]c2c1 [Amb639752] | 4 | 6900 ± 3000 | slightly reducing | – | 96
Cc1ccc(C(=O)N2CCN(CC(=O)c3c(C)[nH]c4cc(C)ccc34)CC2)cc1 [Compound 20, 1-(2,6-Dimethyl-1H-indol-3-yl)-2-(4-(4-methylbenzoyl)piperazin-1-yl)ethan-1-one] | 3 | 1800 | – | restore apoptosis | –
